Article PMC6443996, “1‐Hydroxy‐xanthine derivatives inhibit the human Caf1 nuclease and Caf1‐containing nuclease complexes via Mg^2+‐dependent binding” (FEBS Open Bio, 2019)

What was measured:
Experiment in all cases: chemiluminescence-based AMP detection (AMP-Glo) deadenylase assay
Format in all cases: biochemical
human Caf1/CNOT7 = biological target: T1, human Caf1/CNOT7 (Homo sapiens, UniProt Q9UIV1); details: read-out: IC50 (μM) vs Caf1 ^b
T1 construct: isolated recombinant wild-type Caf1 subunit, expressed and purified from Escherichia coli BL21(DE3)
Description: chemiluminescence-based AMP detection (AMP-Glo) deadenylase assay on human Caf1/CNOT7

[1] = biological target: T2, trimeric human nuclease module (BTG2-Caf1/CNOT7-Ccr4/CNOT6L) (Homo sapiens, UniProt Q9UIV1); details: read-out: IC50 (μM) vs trimeric Caf1-complex ^c
T2 construct: trimeric complex co-expressed from pQE80L-BTG2 and pACYC-Duet1-Strep-CNOT6L-CNOT7 in E. coli; with CCR4-NOT transcription complex subunit 6-like; Protein BTG2

[2] = biological target: T3, human pentameric central module (BTG2-Caf1/CNOT7-Ccr4/CNOT6L-CNOT1-CNOT9) of Ccr4-Not (Homo sapiens, UniProt Q9UIV1); details: read-out: IC50 (μM) vs pentameric Caf1-complex ^d
T3 construct: pentamer reconstituted from separately purified nuclease module and CNOT1 (MIF4G and DUF3819 domains, 1093-1595)-CNOT9 (ARM domain, 33-283) dimer; E. coli; with CCR4-NOT transcription complex subunit 6-like; Protein BTG2; CCR4-NOT transcription complex subunit 1; CCR4-NOT transcription complex subunit 9
T3 sequence (Q9UIV1 whole entry, other chains not shown, the tested form may be a part): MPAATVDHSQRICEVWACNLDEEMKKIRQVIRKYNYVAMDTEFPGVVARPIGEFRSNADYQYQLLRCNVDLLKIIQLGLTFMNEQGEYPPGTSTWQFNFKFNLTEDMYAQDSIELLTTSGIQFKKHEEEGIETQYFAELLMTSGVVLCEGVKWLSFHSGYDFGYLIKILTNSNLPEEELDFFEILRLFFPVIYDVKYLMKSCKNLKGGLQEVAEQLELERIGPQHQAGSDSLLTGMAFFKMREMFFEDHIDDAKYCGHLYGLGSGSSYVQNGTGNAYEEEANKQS
T3 sequence (P78543 whole entry partner, other chains not shown, the tested form may be a part): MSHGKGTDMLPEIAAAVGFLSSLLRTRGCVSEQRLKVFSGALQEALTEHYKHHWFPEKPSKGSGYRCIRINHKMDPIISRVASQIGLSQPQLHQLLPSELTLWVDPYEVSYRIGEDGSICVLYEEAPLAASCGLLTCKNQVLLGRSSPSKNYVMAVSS
T3 sequence (A5YKK6 1093-1595 partner, other chains not shown): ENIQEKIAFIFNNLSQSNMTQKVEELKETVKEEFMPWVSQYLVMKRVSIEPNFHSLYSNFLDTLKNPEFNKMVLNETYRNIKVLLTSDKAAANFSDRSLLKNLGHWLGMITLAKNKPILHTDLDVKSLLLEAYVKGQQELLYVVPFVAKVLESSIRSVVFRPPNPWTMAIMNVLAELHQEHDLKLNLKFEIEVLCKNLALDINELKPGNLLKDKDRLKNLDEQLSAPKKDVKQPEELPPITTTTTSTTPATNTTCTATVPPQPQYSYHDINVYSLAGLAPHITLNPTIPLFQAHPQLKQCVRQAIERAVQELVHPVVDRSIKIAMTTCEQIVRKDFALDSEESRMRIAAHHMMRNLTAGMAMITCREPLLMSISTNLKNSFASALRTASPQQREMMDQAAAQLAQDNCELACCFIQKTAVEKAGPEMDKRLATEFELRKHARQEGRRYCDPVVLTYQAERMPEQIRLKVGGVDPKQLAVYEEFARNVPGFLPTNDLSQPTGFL
T3 sequence (Q92600 33-283 partner, other chains not shown): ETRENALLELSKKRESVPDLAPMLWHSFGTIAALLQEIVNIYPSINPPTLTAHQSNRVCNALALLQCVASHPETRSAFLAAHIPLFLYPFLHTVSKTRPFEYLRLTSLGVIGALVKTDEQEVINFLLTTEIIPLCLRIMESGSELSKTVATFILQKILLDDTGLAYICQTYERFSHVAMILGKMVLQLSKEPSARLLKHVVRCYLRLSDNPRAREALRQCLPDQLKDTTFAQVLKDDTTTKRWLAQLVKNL

T2 sequence (Q9UIV1 whole entry, other chains not shown): as the sequence (Q9UIV1 whole entry, other chains not shown, the tested form may be a part) above
T2 sequence (P78543 whole entry partner, other chains not shown): as the sequence (P78543 whole entry partner, other chains not shown, the tested form may be a part) above
T1 sequence (Q9UIV1 whole entry): as the sequence (Q9UIV1 whole entry, other chains not shown, the tested form may be a part) above

Compound	IC50 (human Caf1/CNOT7)	IC50 [1]	IC50 [2]
CN(C)CCCn1c(=O)n(O)c(=O)c2c1ncn2CCc1ccccc1 [compound 5, 1-hydroxy-xanthine compound 5]	0.79 ± 0.09 µM	1 ± 0.2 µM	0.98 ± 0.07 µM
O=c1[nH]c2ncn(Cc3ccccc3)c2c(=O)n1O [compound 1, 1-hydroxy-xanthine compound 1]	12.7 ± 0.9 µM	13.6 ± 0.6 µM	10.8 ± 0.2 µM
